Reference: patent US20240217982A1, “KRAS INHIBITORS” (Bristol-Myers Squibb Company, priority 2021, published 2024)

Experiments:
KRAS G12D [1] = target: T1, KRAS G12D (Homo sapiens (Human), UniProt P01116, G12D); test: KRAS G12D Nucleotide Exchange Assay (HTRF); format: biochemical; conditions: recombinant GDP-loaded KRAS G12D (20 nM), BIODIPY-labeled GDP (400 nM), recombinant SOS (10 nM), HTRF signal
Description: Recombinant GDP-loaded KRAS G12D (20 nM) was treated with compound at room temperature for 20 minutes in assay buffer (10 mM Hepes pH 7.4, 150 mM NaCl, 5 mM MgCl2, 0.0025% Igepal-CA630, 0.05% BSA, 1 mM DTT, 0.5 nM SA-Tb). BIODIPY-labeled GDP (400 nM) and recombinant SOS (10 nM) were added, and the reaction was incubated for 30 minutes.

KRAS G12D [2] = target: T1, KRAS G12D; test: KRAS G12D RAF Disruption Assay (HTRF); format: biochemical; conditions: recombinant GMPPNP-loaded KRAS G12D (5 nM), GST-RAF1 RBD (9 nM), HTRF signal
Description: Recombinant GMPPNP-loaded KRAS G12D (5 nM) was treated with compound at room temperature for 20 minutes in assay buffer (50 mM Tris pH 7.5, 100 mM NaCl, 1 mM MgCl2, 1 mM DTT, 100 ug/mL BSA).

T1 sequence (P01116-2 other isoform, or with tags, fused parts or gaps G12D): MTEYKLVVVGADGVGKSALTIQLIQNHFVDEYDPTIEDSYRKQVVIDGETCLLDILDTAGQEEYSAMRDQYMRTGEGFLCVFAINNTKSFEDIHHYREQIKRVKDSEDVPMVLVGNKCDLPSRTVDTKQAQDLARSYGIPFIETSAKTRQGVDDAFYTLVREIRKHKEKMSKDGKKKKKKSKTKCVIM

| SMILES | KRASG12D Nucleotide Exchange Assay (IC50, µM) (KRAS G12D [1]) | KRASG12D RAF Disruption Assay (IC50, µM) (KRAS G12D [2]) |
| --- | --- | --- |
| C#Cc1c(F)ccc2cc(O)cc(-c3ccc4c(N5CC[C@H]6CC[C@@H](C5)N6)nc(OC[C@@]56CCCN5C[C@H](F)C6)nc4c3F)c12 [Example 11-6, 4-(2-{[(2R,7aS)-2-fluoro-hexahydro-1H-pyrrolizin-7a-yl]methoxy}-4-[(1S,6R)-3,9-diazabicyclo[4.2.1]nonan-3-yl]-8-fluoroquinazolin-7-yl)-5-ethynyl-6-fluoronaphthalen-2-ol] | 0.02 µM | 0.17 µM |
| Cc1cc(N)nc(-c2c(Cl)cc3c(N4CCC5CCC(C4)N5)nc(OC[C@@H]4CCCN4C)nc3c2F)c1C(F)(F)F (stereo partly drawn) [Example 2-1, 6-(6-chloro-4-{3,9-diazabicyclo[4.2.1]nonan-3-yl}-8-fluoro-2-{[(2S)-1-methylpyrrolidin-2-yl]methoxy}quinazolin-7-yl)-4-methyl-5-(trifluoromethyl)pyridin-2-amine] | 0.04 µM | 6.19 µM |
| Oc1cc(-c2c(Cl)cc3c(N4CC[C@H]5CC[C@@H](C4)N5)nc(OC[C@@]45CCCN4C[C@H](F)C5)nc3c2F)c2ccccc2c1 (single isomer, unassigned) [Example 8-7] | 0.006 µM | 0.51 µM |
| CCc1cccc2cc(O)cc(-c3c(Cl)cc4c(N5CC[C@H]6CC[C@@H](C5)N6)nc(OC[C@]56CCCN5C[C@@H](F)C6)nc4c3F)c12 (single isomer, unassigned) [Example 8-4] | 7.7 µM | 37.8 µM |
| Cc1cc(N)nc(-c2c(Cl)cc3c(N4CC5CCC(C4)NC5)nc(OC[C@@H]4CCCN4C)nc3c2F)c1C(F)(F)F (stereo partly drawn) [Example 2-2, 6-(6-chloro-4-{3,6-diazabicyclo[3.2.2]nonan-3-yl}-8-fluoro-2-{[(2S)-1-methylpyrrolidin-2-yl]methoxy}quinazolin-7-yl)-4-methyl-5-(trifluoromethyl)pyridin-2-amine] | 0.14 µM | 10.88 µM |
| CCc1cccc2cccc(-c3ccc4c(N5CC[C@H]6CC[C@@H](C5)N6)nc(OC[C@@]56CCCN5C[C@H](F)C6)nc4c3F)c12 [Example 11-8, 2-{[(2R,7aS)-2-fluoro-hexahydro-1H-pyrrolizin-7a-yl]methoxy}-4-[(1S,6R)-3,9-diazabicyclo[4.2.1]nonan-3-yl]-7-(8-ethylnaphthalen-1-yl)-8-fluoroquinazoline] | 2.0 µM | 54.4 µM |
